Laboratory results reported in patent EP0381374A1, “Phosphodiesterase inhibitors” (LES LABORATOIRES BEECHAM S.A., priority 1989, dated 1990).

Assays:
[1] = system: Canine cardiac myofibrillar Ca⁺⁺-dependent Mg⁺⁺ ATPase; experiment: Measurement of myofibrillar Ca++-dependent Mg++-ATPase activity; format: biochemical; settings: Concentration: 3 x 10⁻⁵ molar; for Shift in pCa50 (ΔpCa50): shift of the pCa giving 50% of the maximal control ATPase activity, 21°C, pH 7.0; for Max ATPase activity(%): percent change of ATPase activity for pCa = 5.47
Protocol: 1. Measurement of myofibrillar Ca++-dependent Mg++-ATPase activity
The effect on Ca++sensitivity and on maximal activity of myofibrillar Ca++-dependent Mg++-ATPase was determined on canine cardiac myofibrils.
(a) Contractile protein preparation
Cardiac myofibrils free of membrane contaminants were prepared from left ventricular tissue of dog hearts using a modification of the method described by SOLARO et al, Biochem. Biophys. Acta, 245, 259-262, (1971). Before centrifugation, the heart homogenate was filtered through gauze.
After Triton X-100 treatments, the myofibrillar fraction was washed once by resuspension and centrifugation in 10 volumes of 1 mM EGTA, […] KCl, 30 mM imidazole, 2 mM MgCl₂, pH 7.0. The pellet was then washed three times in 10 volumes of the same buffer without EGTA. Before the last centrifugation, the suspension of myofibrils was filtered through a stainless steel sieve with 0.25 mm meshes.
Myofibrils were kept in pellet overnight. Before use, the pellet was suspended in a small amount of buffer, the protein concentration was determined by the method of BRADFORD M., Anal. Biochem., 1976, 72, 248 and adjusted in order to have a concentration between 6 and 7mg/ml, using gamma globuline as standard.
(b) Myofibrillar ATPase activity
Ca++-dependent myfibrillar ATPase activity was determined at 21 °C, pH 7.0, by measuring the rate of release of inorganic phosphate. All assays were performed within 24hrs. of final purification, using the method described by SOLARO and RUEGG, CIRC. RES., 51, 290-4,(1982). Reaction mixtures (4ml) containing 0.6 - 0.7 mg/ml myofibrillar protein, 80mM KCl, 20 mM imidazole, 3 mM MgCl₂, 1 mM EGTA, the desired amount of CaCl₂, and the indicated concentration of drug or appropriate vehicle were preincubated for 6 min. prior to assay. The amount of CaCl₂ was varied between 0 and 0.9 mM and the pca (-log free Ca++) computed using 2.514 x 10⁶ M⁻¹ as the apparent affinity of Ca++ for EGTA at pH 7.0.
Reactions were initiated by the addition of Na₂ATP to final concentration of 2 mM. After an incubation period of 12 min., reactions were quenched by the addition of an equal volume of ice-cold 10% trichloroacetic acid. The protein was pelleted by centrifugation (2000g, 15 min.) and Pi was assayed in the supernatant fraction using a modification of the method described by LANZETTA et al, Anal. Biochem., 100, 95-97, (1979).
The following solutions were prepared: • (1) 3.7% ammonium heptamolybdate in 0.12 N H₂SO₄ • (2) 0.074% malachite green oxalate in 1% polyvinylic alcohol.
The colour reagent was prepared by mixing an equal volume of solution (1) and (2) 15 min. before the assay. For the assay, 1700 µl of 1% H₂SO₄ and 1 ml of colour reagent were added to 100 µl of sample. Colour development occurred at room temperature for 30 min. and was quenched by the addition of 200 µl of 1 M tri-potassium citrate. The absorbance was measured at 620 millimicrons.
The effect of each compound, tested at the indicated concentration, on the relation between pCa and percent activation was determined taking 100% for the maximum ATPase activity obtained with vehicle alone. The effect on Ca++ sensitivity was quantified by measuring the shift of the pCa giving 50% of the maximal control ATPase activity.
The effect on maximal ATPase activity was expressed as the percent change of ATPase activity for pCa = 5.47.

[2] = target: T1, CGI-PDE (i.e., c-GMP-inhibited PDE) (Canis lupus familiaris, UniProt A0A8I3NYE0); experiment: Inhibition of cardiac phosphodiesterases, Fraction IV (CGI-PDE); format: biochemical; settings: canine left ventricle PDE Fraction IV
T1 construct: isoforms of canine left ventricle were separated by column ion exchange chromatography; from tissue; host or cells: canine left ventricle, Fractogel TSK DEAE 650 fraction IV
T1 sequence (A0A8I3NYE0 1-1135): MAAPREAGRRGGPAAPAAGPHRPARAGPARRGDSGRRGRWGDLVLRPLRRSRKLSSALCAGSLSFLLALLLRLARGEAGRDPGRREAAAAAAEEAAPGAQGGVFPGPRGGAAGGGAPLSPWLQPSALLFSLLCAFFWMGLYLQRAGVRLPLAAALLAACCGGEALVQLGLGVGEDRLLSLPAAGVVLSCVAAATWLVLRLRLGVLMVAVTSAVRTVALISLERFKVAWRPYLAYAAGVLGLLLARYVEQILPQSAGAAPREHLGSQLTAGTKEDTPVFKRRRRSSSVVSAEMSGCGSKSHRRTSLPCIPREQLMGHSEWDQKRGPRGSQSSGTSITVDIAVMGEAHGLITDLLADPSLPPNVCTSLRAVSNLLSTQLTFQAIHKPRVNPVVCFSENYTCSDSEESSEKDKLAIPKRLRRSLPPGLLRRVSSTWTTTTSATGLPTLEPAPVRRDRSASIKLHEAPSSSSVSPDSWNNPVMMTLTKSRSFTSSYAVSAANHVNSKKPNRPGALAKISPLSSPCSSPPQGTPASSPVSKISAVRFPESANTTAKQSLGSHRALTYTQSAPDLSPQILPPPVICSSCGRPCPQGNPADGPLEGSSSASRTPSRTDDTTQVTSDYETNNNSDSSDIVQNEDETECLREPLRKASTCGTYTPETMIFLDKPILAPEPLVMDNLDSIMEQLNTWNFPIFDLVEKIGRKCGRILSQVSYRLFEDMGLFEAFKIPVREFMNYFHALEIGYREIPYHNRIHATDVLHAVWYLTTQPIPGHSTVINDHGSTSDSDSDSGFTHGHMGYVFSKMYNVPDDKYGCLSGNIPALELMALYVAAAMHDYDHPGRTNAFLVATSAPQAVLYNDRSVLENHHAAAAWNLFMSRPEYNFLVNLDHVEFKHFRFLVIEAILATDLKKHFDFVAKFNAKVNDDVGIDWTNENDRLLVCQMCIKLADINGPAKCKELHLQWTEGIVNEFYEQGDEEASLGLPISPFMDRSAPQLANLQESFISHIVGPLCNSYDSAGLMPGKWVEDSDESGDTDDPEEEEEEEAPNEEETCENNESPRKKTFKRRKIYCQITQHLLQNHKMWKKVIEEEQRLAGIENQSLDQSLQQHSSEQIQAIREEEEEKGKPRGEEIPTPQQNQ
Protocol: 2. Inhibition of Cardiac Phosphodiesterases
The phosphodiesterases (PDE) isoforms of canine left ventricle were separated by column ion exchange chromatography, using a minor modification of the method previously described by Alvarez et al. (Mol. Pharmacol., 1986, 29, 554-560). A Fractogel TSK DEAE 650 column was used and the PDEs were eluted using a continuous sodium acetate gradient (50 to 500 mM). The flow rate was 1.2ml/min and fractions of c.a. 8ml were collected as described by Weishaar et al. (Biochem. Pharmacol., 1986, 35, 787-800).
Four isoforms were identified • i) Fraction I or CAM-PDE (i.e. Ca⁺⁺/calmodulin-activated PDE), which hydrolyses both c-AMP and c-GMP, and presents a low Km for c-AMP over a wide range of concentration. It is activated by Ca⁺⁺/calmodulin. • ii) Fraction II or CGS-PDE (i.e. c-GMP-stimulated PDE), which hydrolyses more specifically c-GMP, and presents a high Km, for c-AMP over a wide range of concentration. It is stimulated by c-GMP. • iii) Fraction III or NCGI-PDE (i.e. not c-GMP-inhibited PDE), which hydrolyses more specifically c-AMP and presents two relatively low Km sites of affinity. It is not inhibited by c-GMP. iv) Fraction IV or CGI-PDE (i.e., c-GMP-inhibited PDE), which also hydrolyses more specifically c-AMP, and also presents two relatively low Km site of affinity. It is inhibited by c-GMP.
The inhibitory effect of the test compounds was expressed as the IC₅₀, i.e. the concentration which inhibits the activity by 50%, this value being expressed in micromoles.

Row | Shift in pCa50 (ΔpCa50) [1] | Max ATPase activity(%) [1] | IC50 [2] | Molecule
1 | 0.38 |  |  | CC1SC(=O)NN=C1c1ccc2c(c1)C(C)(C)C(=O)N2Cc1ccccc1 (stereo not drawn) [Example 5, 1,3-Dihydro-5-(3,6-dihydro-6-methyl-2-oxo-2H-1,3,4-thiadiazin-5-yl)-3,3-dimethyl-1-(phenylmethyl)-2H-indol-2-one]
2 | 0.99 |  |  | CC1SC(=O)NN=C1c1ccc2c(c1)C(C1CCCCC1)C(=O)N2 (stereo not drawn) [Example 10, 3-Cyclohexyl-1,3-dihydro-5-(3,6-dihydro-6-methyl-2-oxo-2H-1,3,4-thiadiazin-5-yl)-2H-indol-2-one]
3 | 0.32 | +11% |  | 1-Cyclohexylmethyl-5-(3,6-dihydro-6-methyl-2-oxo-2H-1,3,4-thiadiazin-5-yl)-1,3-dihydro-3,3-dimethyl-2H-indol-2-one [Example 9]
4 | 0.21 |  |  | O=C1NN=C(c2ccc3c(c2)C(Sc2ccccc2)C(=O)N3)CS1 (stereo not drawn) [Example 11, 1,3-Dihydro-5-(3,6-dihydro-2-oxo-2H-1,3,4-thiadiazin-5-yl)-3-phenylthio-2H-indol-2-one]
5 |  |  | 15 µM | CC1SC(=O)NN=C1c1ccc2c(c1)C(C)(C)C(=O)N2C(=O)Nc1ccccc1 (stereo not drawn) [Example 2, 2,3-Dihydro-5-(3,6-dihydro-6-methyl-2-oxo-2H-1,3,4-thiadiazin-5-yl)-3,3-dimethyl-2-oxo-N-phenyl-1H-indole-1-carboxamide]
6 | 0.23 |  | 6.7 µM | CCOC(=O)CN1C(=O)C(C)(C)c2cc(C3=NNC(=O)SC3C)ccc21 (stereo not drawn) [Example 3, Ethyl 2,3-dihydro-5-(3,6-dihydro-6-methyl-2-oxo-2H-1,3,4-thiadiazin-5-yl)-3,3-dimethyl-2-oxo-N-1H-indole-1-acetate]
7 | 0.68 |  | 3.2 µM | CC1SC(=O)NN=C1c1ccc2c(c1)C(c1ccccc1)C(=O)N2 (stereo not drawn) [Example 4, 1,3-Dihydro-5-(3,6-dihydro-6-methyl-2-oxo-2H-1,3,4-thiadiazin-5-yl)-3-phenyl-2H-indol-2-one]
8 | 0.20 |  |  | CC1SC(=O)NN=C1c1ccc2c(c1)C(C)(C)C(=O)N2c1ccccc1 (stereo not drawn) [Example 7, 1,3-Dihydro-5-(3,6-dihydro-6-methyl-2-oxo-2H-1,3,4-thiadiazin-5-yl)-3,3-dimethyl-1-phenyl-2H-indol-2-one]
9 | 0.49 |  |  | O=C1NN=C(c2ccc3c(c2)C(C2CCCCC2)C(=O)N3)CS1 (stereo not drawn) [Example 12, 3-Cyclohexyl-1,3-dihydro-5-(3,6-dihydro-2-oxo-2H-1,3,4-thiadiazin-5-yl)-2H-indol-2-one]
10 | 0.19 | -18% | 0.87 µM | CC1SC(=O)NN=C1c1ccc2c(c1)C1(CCCC1)C(=O)N2C(=O)c1ccc(N)cc1.Cl (stereo not drawn) [Example 1, 1′-[(4-Aminophenyl)carbonyl]-5′-(3,6-dihydro-6-methyl-2-oxo-2H-1,3,4-thiadiazin-5-yl)-spiro[cyclopentane-1,3′-[3H]-indol]-2′(1′H)-one, hydrochloride]
